Measurements: the NIST ThermoML archive (doi:10.1021/je201002j)

What was measured:
[1] = molar heat capacity at constant pressure; conditions: 101.33 kPa, Liquid, Small sample (50 mg) DSC
[2] = 101.33 kPa, Liquid, Vibrating tube method

BrCCCCCCCCCCCBr [1,11-dibromoundecane]
[1]
Conditions	molar heat capacity at constant pressure [J/K/mol]
285.15 K	389.4
286.65 K	389.99
288.15 K	390.59
289.65 K	391.2
291.15 K	391.83
292.65 K	392.47
294.15 K	393.12
295.65 K	393.79
297.15 K	394.47
298.15 K	394.92
298.65 K	395.16
300.15 K	395.85
301.65 K	396.56
303.15 K	397.28
304.65 K	398.01
306.15 K	398.75
307.65 K	399.5
309.15 K	400.25
310.65 K	401.02
312.15 K	401.79
313.65 K	402.57
315.15 K	403.35
316.65 K	404.15
318.15 K	404.94
319.65 K	405.75
321.15 K	406.56
322.65 K	407.37
324.15 K	408.19
325.65 K	409.01
327.15 K	409.84
328.65 K	410.67
330.15 K	411.5
331.65 K	412.33
333.15 K	413.17
334.65 K	414.01
336.15 K	414.84
337.65 K	415.68
339.15 K	416.53
340.65 K	417.37
342.15 K	418.21
343.65 K	419.04
345.15 K	419.88
346.65 K	420.72
348.15 K	421.55
349.65 K	422.38
351.15 K	423.21
352.65 K	424.04
354.15 K	424.86
355.15 K	425.41

ClCCCCCBr [1-bromo-5-chloropentane]
[2]
Conditions	mass density [kg/m3]
288.15 K	1409.7
298.15 K	1399.37
308.15 K	1388.77
318.15 K	1377.96

BrCCCCCCCCBr [1,8-dibromooctane]
[1]
Conditions	molar heat capacity at constant pressure [J/K/mol]
288.15 K	302.23
289.65 K	302.83
291.15 K	303.43
292.65 K	304.03
294.15 K	304.63
295.65 K	305.23
297.15 K	305.83
298.15 K	306.23
298.65 K	306.43
300.15 K	307.03
301.65 K	307.63
303.15 K	308.23
304.65 K	308.82
306.15 K	309.42
307.65 K	310.02
309.15 K	310.61
310.65 K	311.21
312.15 K	311.8
313.65 K	312.39
315.15 K	312.99
316.65 K	313.58
318.15 K	314.17
319.65 K	314.76
321.15 K	315.35
322.65 K	315.94
324.15 K	316.53
325.65 K	317.12
327.15 K	317.71
328.65 K	318.3
330.15 K	318.88
331.65 K	319.47
333.15 K	320.05
334.65 K	320.64
336.15 K	321.22
337.65 K	321.81
339.15 K	322.39
340.65 K	322.97
342.15 K	323.56
343.65 K	324.14
345.15 K	324.72
346.65 K	325.3
348.15 K	325.88
349.65 K	326.46
351.15 K	327.04
352.65 K	327.62
354.15 K	328.19
355.15 K	328.58

ClCCBr [1-bromo-2-chloroethane]
[2]
Conditions	mass density [kg/m3]
288.15 K	1742.45
298.15 K	1726.56
308.15 K	1710.57
318.15 K	1693.61

BrCCCCCCCCCBr [1,9-dibromononane]
[1]
Conditions	molar heat capacity at constant pressure [J/K/mol]
286.65 K	330.9
288.15 K	331.44
289.65 K	332
291.15 K	332.56
292.65 K	333.14
294.15 K	333.72
295.65 K	334.3
297.15 K	334.9
298.15 K	335.29
298.65 K	335.5
300.15 K	336.1
301.65 K	336.72
303.15 K	337.34
304.65 K	337.96
306.15 K	338.59
307.65 K	339.23
309.15 K	339.87
310.65 K	340.52
312.15 K	341.17
313.65 K	341.83
315.15 K	342.49
316.65 K	343.16
318.15 K	343.83
319.65 K	344.5
321.15 K	345.18
322.65 K	345.86
324.15 K	346.54
325.65 K	347.22
327.15 K	347.91
328.65 K	348.6
330.15 K	349.3
331.65 K	349.99
333.15 K	350.69
334.65 K	351.39
336.15 K	352.08
337.65 K	352.78
339.15 K	353.49
340.65 K	354.19
342.15 K	354.89
343.65 K	355.59
345.15 K	356.29
346.65 K	356.99
348.15 K	357.69
349.65 K	358.39
351.15 K	359.09
352.65 K	359.79
354.15 K	360.49
355.15 K	360.95

ClCCCCCCBr [1-bromo-6-chlorohexane]
[2]
Conditions	mass density [kg/m3]
288.15 K	1345.17
298.15 K	1336.47
308.15 K	1327.17
318.15 K	1316.45

ClCCCCBr [1-bromo-4-chlorobutane]
[2]
Conditions	mass density [kg/m3]
288.15 K	1496.19
298.15 K	1485.12
308.15 K	1473.33
318.15 K	1460.96

ClCCCBr [1-bromo-3-chloropropane]
[2]
Conditions	mass density [kg/m3]
288.15 K	1601.96
298.15 K	1588.17
308.15 K	1574.87
318.15 K	1560.65

BrCCCCCCCCCCCCBr [1,12-dibromododecane]
[1]
Conditions	molar heat capacity at constant pressure [J/K/mol]
310.65 K	432.62
312.15 K	433.39
313.65 K	434.17
315.15 K	434.98
316.65 K	435.79
318.15 K	436.62
319.65 K	437.46
321.15 K	438.31
322.65 K	439.17
324.15 K	440.04
325.65 K	440.91
327.15 K	441.8
328.65 K	442.68
330.15 K	443.57
331.65 K	444.47
333.15 K	445.36
334.65 K	446.26
336.15 K	447.15
337.65 K	448.04
339.15 K	448.93
340.65 K	449.82
342.15 K	450.69
343.65 K	451.57
345.15 K	452.43
346.65 K	453.29
348.15 K	454.13
349.65 K	454.96
351.15 K	455.78
352.65 K	456.59
354.15 K	457.38
355.15 K	457.9
